According to BigSolDB 2.1:

CCCN(CCc1cccs1)[C@H]1CCc2c(O)cccc2C1
solubility (mole fraction)
Conditions	in ethanol	in ethyl acetate	in isopropanol	in isopropyl acetate	in methanol	in methyl acetate	in n-butanol	in n-butyl acetate	in n-propanol	in n-propyl acetate
278.15 K	0.00236	0.0243	0.00273	0.0201	0.00131	0.0124	0.00758	0.0311	0.00555	0.0247
283.15 K	0.00398	0.0303	0.00418	0.0257	0.00249	0.0167	0.0105	0.0368	0.00758	0.0305
288.15 K	0.00677	0.0369	0.00598	0.0314	0.00379	0.0211	0.0129	0.0433	0.0103	0.0371
293.15 K	0.00912	0.0437	0.00845	0.0381	0.00531	0.0262	0.0163	0.051	0.0138	0.0435
298.15 K	0.012	0.0512	0.0105	0.046	0.00696	0.0323	0.0222	0.0597	0.0175	0.052
303.15 K	0.0183	0.0601	0.0163	0.0553	0.0107	0.0393	0.0306	0.0688	0.0237	0.0612
308.15 K	0.0239	0.0707	0.0219	0.0661	0.0161	0.0482	0.0387	0.08	0.0298	0.0716
313.15 K	0.0345	0.0812	0.0311	0.0782	0.0248	0.0587	0.0467	0.0915	0.0399	0.0834
